Experimental data: patent US11780832B2, “Lactivicin compounds, their preparation and use as antibacterial agents” (priority 2021, dated 2023)

How the values were obtained:
Type in all cases: cell-based
[1] = system: Acinetobacter baumannii ATCC 19606; assay: MIC, CLSI broth microdilution; settings: ATCC19606
Method in brief: (§1)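 CLSI broth microdilution with 2-fold serial dilutions over a final range of 16-0.0125 μg/mL. Final inoculum 5×10^5 CFU/mL, using genotyped ATCC or clinical isolates taken two subcultures from frozen stock.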

[2] = system: Enterobacter cloacae species complex NDM-1; assay: MIC, CLSI broth microdilution
Method in brief: as §1

[3] = system: Escherichia coli CTX-M-15; assay: MIC, CLSI broth microdilution; settings: CTXM15
Method in brief: as §1

[4] = system: Klebsiella aerogenes VIM-1, SHV-12; assay: MIC, CLSI broth microdilution
Method in brief: as §1

[5] = system: Klebsiella oxytoca KPC-2, TEM-1; assay: MIC, CLSI broth microdilution
Method in brief: as §1

[6] = system: Klebsiella pneumoniae KPC-2; assay: MIC, CLSI broth microdilution; settings: KPC2
Method in brief: as §1

[7] = system: Klebsiella pneumoniae KPC-3; assay: MIC, CLSI broth microdilution; settings: KPC3
Method in brief: as §1

[8] = system: Klebsiella pneumoniae OXA-163, OXA-1_OXA-30, SHV-1, TEM-1; assay: MIC, CLSI broth microdilution
Method in brief: (§2)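 Genotyped isolates from ATCC or clinical specimens were passaged twice from frozen stock and tested at 5×10^5 CFU/mL final inoculum. Compounds were 2-fold diluted to final 16-0.0125 μg/mL per CLSI broth microdilution.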

[9] = system: Klebsiella pneumoniae OXA-48, SHV-1; assay: MIC, CLSI broth microdilution
Method in brief: as §2

[10] = system: Pseudomonas aeruginosa OprD negative; assay: MIC, CLSI broth microdilution
Method in brief: as §2

[11] = system: Citrobacter freundii species complex Elevated AmpC; assay: MIC against Elevated AmpC producing strains, compound alone; settings: row r16
Protocol: (§3) Gram-negative and Gram-positive bacterial strains used during the in vitro minimum inhibitory concentration (MIC) determination were obtained either from the American Type Culture Collection (ATCC) or from clinical specimens. All strains were characterized genotypically and the respective antibiotic resistance markers for each strain were identified.
(§4) Isolates were sub-cultured onto appropriate media and stocked in skim milk at −80° C. Following two subcultures from frozen stock, in vitro antimicrobial susceptibility testing was performed using the Clinical and Laboratory Standards Institute (CLSI) broth microdilution method. Briefly, fresh cultures were suspended in culture media to give a final stock inoculum size of 5×10^7 colony forming units per milliliter of broth (CFU/mL). Test compounds were prepared at a stock solution concentration equal to 128 μg/mL, then diluted to give a final an initial working concentration of 32 μg/mL. 100 μL of the stock solutions were added to the first wells in a 96-well plate and were then diluted using a 2-fold dilution method to give a range of 32-0.025 μg/mL. 100 μL of the bacterial suspensions were then added to the 96-well plates to give a final working inoculum size of 5×10^5 CFU/mL. The final compound concentration range was 16-0.0125 μg/mL. […] MICs for comparator agents were determined using custom-designed, in-house prepared 96-well broth microdilution panels.

[12] = system: Enterobacter cloacae species complex Elevated AmpC; assay: as above
Protocol: as §3, §4

[13] = system: Escherichia coli Elevated AmpC; assay: as above
Protocol: as §3, §4

Escherichia coli CMY-DHA [14] = assay: MIC against CMY-DHA producing strains, compound alone
Protocol: as §3, §4

[15] = system: Klebsiella pneumoniae CMY-DHA; assay: as above; settings: row r32
Protocol: as §3, §4

[16] = system: Proteus mirabilis CMY-DHA; assay: as above; settings: row r36
Protocol: as §3, §4

[17] = system: Citrobacter freundii species complex Elevated AmpC; assay: Synergistic activity: MIC in the presence of Avibactam; settings: row r16, in the presence of Avibactam @ 4 μg/mL
Protocol: as §4
(§5) The same method used to test the activity of the claimed compounds was used to determine their synergistic activity when combined with a β-lactamase inhibitor except that either a fixed concentration or fixed ratio of a β-lactamase inhibitor was added to the 96-well plates prior to adding the bacteria cultures. Synergistic activity was defined as the reduction of MIC of a given compound when tested using the β-lactamase inhibitor versus testing the compound in the absence of a β-lactamase inhibitor.

[18] = system: Enterobacter cloacae species complex Elevated AmpC; assay: as above
Protocol: as §4, §5

Escherichia coli CMY-DHA [19] = assay: as above
Protocol: as §4, §5

[20] = system: Escherichia coli Elevated AmpC; assay: as above
Protocol: as §4, §5

[21] = system: Klebsiella pneumoniae CMY-DHA; assay: as above; settings: row r32, in the presence of Avibactam @ 4 μg/mL
Protocol: as §4, §5

[22] = system: Proteus mirabilis CMY-DHA; assay: as above; settings: row r36, in the presence of Avibactam @ 4 μg/mL
Protocol: as §4, §5

[23] = in the presence of Avibactam @ 4 μg/mL
[24] = strain of row r7, in the presence of Avibactam @ 4 μg/mL
[25] = strain of row r20, in the presence of Avibactam @ 4 μg/mL
[26] = strain of row r26, in the presence of Avibactam @ 4 μg/mL
[27] = strain of row r27, in the presence of Avibactam @ 4 μg/mL
[28] = strain of row r28, in the presence of Avibactam @ 4 μg/mL
[29] = strain of row r29, in the presence of Avibactam @ 4 μg/mL
[30] = strain of row r30, in the presence of Avibactam @ 4 μg/mL
[31] = strain of row r31, in the presence of Avibactam @ 4 μg/mL
[32] = strain of row r34, in the presence of Avibactam @ 4 μg/mL
[33] = strain of row r35, in the presence of Avibactam @ 4 μg/mL
[34] = strain of row r10, in the presence of Avibactam @ 4 μg/mL
[35] = strain of row r11, in the presence of Avibactam @ 4 μg/mL
[36] = strain of row r12, in the presence of Avibactam @ 4 μg/mL
[37] = strain of row r13, in the presence of Avibactam @ 4 μg/mL
[38] = strain of row r14, in the presence of Avibactam @ 4 μg/mL
[39] = strain of row r15, in the presence of Avibactam @ 4 μg/mL

Measured: MIC

Nc1nc(/C(=N/OC2(C(=O)O)CC2)C(=O)N[C@H]2CON(C3(C(=O)O)C[C@H](N4C(=O)c5cc(O)c(O)cc5C4=O)C(=O)O3)C2=O)cs1 (stereo partly drawn) [Cmpd 1, (4S)-2-[(4S)-4-{[(2Z)-2-(2-amino-1,3-thiazol-4-yl)-2-{[(1-carboxycyclopropyl)oxy]imino}acetyl]amino}-3-oxo-1,2-oxazolidin-2-yl]-4-(5,6-dihydroxy-1,3-dioxo-1,3-dihydro-2H-isoindol-2-yl)-5-oxooxolane-2-carboxylic acid]
0.06 µg/mL: [8] | [13]; strain of row r13 | [13]; strain of row r14 | Escherichia coli CMY-DHA [14]; strain of row r27 | [18]; [23] | Escherichia coli CMY-DHA [19]; [29] | Escherichia coli CMY-DHA [19]; [31] | [20]; [39]
0.12 µg/mL: [2] | [6] | [10] | [13]; strain of row r15 | [18]; [24]
2 µg/mL: [12]; strain of row r7 | Escherichia coli CMY-DHA [14]; strain of row r31 | [16]
0.25 µg/mL: [12]; strain of row r20 | [13]; strain of row r11 | Escherichia coli CMY-DHA [14]; strain of row r28 | Escherichia coli CMY-DHA [14]; strain of row r34 | Escherichia coli CMY-DHA [14]; strain of row r35
0.0149 µg/mL: [5] | [7] | [9]
<=0.008 μg/mL: [18]; [25] | Escherichia coli CMY-DHA [19]; [27] | Escherichia coli CMY-DHA [19]; [28] | Escherichia coli CMY-DHA [19]; [30] | Escherichia coli CMY-DHA [19]; [32] | Escherichia coli CMY-DHA [19]; [33] | [20]; [34] | [20]; [35] | [20]; [37] | [20]; [38]
0.03 µg/mL: [1] | [17] | Escherichia coli CMY-DHA [19]; [26] | [22]
1 µg/mL: [3] | Escherichia coli CMY-DHA [14]; strain of row r26 | [15]
0.015 µg/mL: [13]; strain of row r10 | [20]; [36]
0.5 µg/mL: [4] | [11] | [12] | [13]; strain of row r12 | Escherichia coli CMY-DHA [14]; strain of row r29 | Escherichia coli CMY-DHA [14]; strain of row r30 | [21]

Nc1nc(/C(=N/OC2(C(=O)O)CCOCC2)C(=O)N[C@H]2CON(C3(C(=O)O)C[C@H](N4C(=O)c5cc(O)c(O)cc5C4=O)C(=O)O3)C2=O)cs1 (stereo partly drawn) [Cmpd 8, 4-({(Z)-[1-(2-amino-1,3-thiazol-4-yl)-2-({(4S)-2-[(4S)-2-carboxy-4-(5,6-dihydroxy-1,3-dioxo-1,3-dihydro-2H-isoindol-2-yl)-5-oxooxolan-2-yl]-3-oxo-1,2-oxazolidin-4-yl}amino)-2-oxoethylidene]amino}oxy)oxane-4-carboxylic acid]
0.06 µg/mL: [8] | [13]; strain of row r14 | Escherichia coli CMY-DHA [14]; strain of row r27 | [18]; [23] | Escherichia coli CMY-DHA [19]; [29] | Escherichia coli CMY-DHA [19]; [31] | [20]; [39]
0.0149 µg/mL: [5] | [7] | [9]
0.25 µg/mL: [2] | [11] | [13]; strain of row r12 | Escherichia coli CMY-DHA [14]; strain of row r28 | Escherichia coli CMY-DHA [14]; strain of row r30 | Escherichia coli CMY-DHA [14]; strain of row r35 | [21]
0.12 µg/mL: [1] | [6] | [10] | [12]; strain of row r20 | [13]; strain of row r11 | [13]; strain of row r15 | Escherichia coli CMY-DHA [14]; strain of row r34 | [18]; [24]
0.5 µg/mL: [12] | Escherichia coli CMY-DHA [14]; strain of row r29 | [22]
1 µg/mL: Escherichia coli CMY-DHA [14]; strain of row r26 | Escherichia coli CMY-DHA [14]; strain of row r31 | [15]
2 µg/mL: [3] | [4] | [12]; strain of row r7
0.03 µg/mL: [13]; strain of row r13 | [17] | Escherichia coli CMY-DHA [19]; [26] | [20]; [35] | [20]; [36]
0.015 µg/mL: [13]; strain of row r10 | Escherichia coli CMY-DHA [19]; [32]
4 µg/mL: [16]
<=0.008 μg/mL: [18]; [25] | Escherichia coli CMY-DHA [19]; [27] | Escherichia coli CMY-DHA [19]; [28] | Escherichia coli CMY-DHA [19]; [30] | Escherichia coli CMY-DHA [19]; [33] | [20]; [34] | [20]; [37] | [20]; [38]
